Data taken from patent US20230277553A1, “THERAPEUTIC COMPOSITION OF CURE-PRO COMPOUNDS FOR TARGETED DEGRADATION OF BET DOMAIN PROTEINS, AND METHODS OF MAKING AND USAGE” (CORNELL UNIVERSITY, priority 2020, published 2023).
“Also recorded” adds a separate entry of the source.

Tests used:
Assay type in all cases: cell-based
BRD4 [1] = molecular target: T1, BRD4 (Homo sapiens, UniProt O60885); assay: CURE-PRO-mediated BRD4 degradation with VHL ligands, WES (ProteinSimple), MCF7 cells; set-up: endogenous in cells
Protocol: (§1) All cell lines were purchased from ATCC or DSMZ and grown at 37° C. with 5% CO2. Human HeLa cells were cultured in complete growth medium (Dulbecco's modified Eagle's medium (DMEM) supplemented with 10% FBS); MCF7 cells were cultured in complete growth medium (Dulbecco's modified Eagle's medium (DMEM) supplemented with 10% FBS and 0.01 mg/ml human recombinant insulin (Sigma Aldrich); Namalwa and MOLM-13 cells were cultured in complete growth medium (RPMI 1640 medium supplemented with 10% FBS); MV-4-11 were cultured in complete growth medium (Iscove's Modified Dulbecco's medium, supplemented with 10% FBS); HCT116 cells were cultured in complete growth medium (McCoy's 5a Medium supplemented with 10% FBS). For cellular degradation of BRD4 studies, cells were seeded in a 12-well plate at 70-80% confluency, allowed to attach overnight, and incubated with the indicated compounds for the indicated time. When indicated, a 15-minute pretreatment with 10 μM pomalidomide, 10 μM VHL298, 10 μM Nutlin3a, 1 μM MG-132 or 1 μM Carfilzomib was performed before the addition of CURE-PROs. For washout studies, after CURE-PRO treatment, media was aspirated and incubated with complete medium for the indicated time before lysis.
WES Simple analysis was performed on WES system (ProteinSimple-Biotechne) according to the manufacturer's instructions. Total protein concentrations of cell lysates were determined by the Pierce BCA kit (Thermo Fisher). 3 μL of 0.3 μg/μL of the protein lysate was loaded onto a 12- to 230-kDa WES assay plate (ProteinSimple) where 300 nL sample was withdrawn through a capillary, subjected to electrophoretic separation of proteins by size, and followed by the simultaneous, HRP-based detection of proteins using the Anti-Rabbit Detection Module (Proteinsimple: #DM-001). The electropherograms were checked then the automatic peak detection was manually corrected if it was required.
MCF7 cells (3×10^6) were treated for 4-24 hours continually (FIG. 72), or treated for 4h, washed and incubated for a further 4-24 h with the compounds solubilized in DMSO. Compounds were added at 10 μM each. Cells were washed, lysed, and clarified by centrifugation. The total protein concentration was quantified by the BCA method (ThermoFisher Sciences). Standardized protein samples were electrophoresed and imaged as described in the WES Proteinsimple section above. FIG. 69 depicts the CURE-PRO-mediated BRD4 degradation for the BRD-E50 monomer, and VHL ligand, 8305.
MCF7 cells (3×10^6) were treated for 24 hours with the compounds solubilized in DMSO. CURE-PRO monomers were added at 10 μM each and the proteasomal inhibitors at 1 μM. Standardized protein samples were electrophoresed and imaged as described in the WES Proteinsimple section above. FIGS. 73 and 75 depicts the dependence of the proteasome for CURE-PRO-mediated BRD4 degradation.
MCF7 cells (3×10^6) were treated for 24 hours with the compounds solubilized in DMSO. CURE-PRO monomers were added at 10 μM. FIG. 74 depicts the CURE-PRO-mediated BRD4 degradation for the BRD-E50 monomer, and VHL ligand, 8305 combined in a 1:1 ratio after 24 h.

caspase 3/7 [2] = assay: Caspase-Glo 3/7 assay, Molm-13 cells
Protocol: (§2) Caspase-glo® assay (Promega) was conducted following the manufacturer's recommendations. Cells were seeded at a density of 5000 cells/well in a white 96 well plates (Corning, #3917) in a total volume of 100 μl with respective monomers, combinations of BRD ligands together with E3 ligase ligands or vehicle control treatment. After a 24 h incubation, 100 μl of the […] substrate was added per well and luminescence was read on a Spectramax M5 (Molecular Devices).
(§3) Molm-13 (FIG. 76A) or Namalwa (FIG. 76B) cells (5×10^4) were treated for 24 hours with the compounds solubilized in DMSO in white 96 well plates (10 nM-10 μM solubilized in DMSO). FIG. 76 is a bar graph depiction of fold increase of apoptosis assessed via caspase 3/7 activity using the Caspase-glo assay (Promega) described above.

BRD4 [3] = molecular target: T1, BRD4; assay: CURE-PRO-mediated BRD4 degradation with VHL ligands, Western blot, MCF7 cells; set-up: endogenous in cells; settings: MCF7, 24 h
Protocol: as §1
HeLa, MCF7, or HCT116 cells (2.5-3×10^6) were treated for 24 hours with the indicated compounds solubilized in DMSO. The cells were washed in ice-cold PBS and were then lysed in RIPA lysis buffer (150 mM NaCl, 5 mM EDTA, 1% NP-40, 0.5% sodium deoxycholate, 0.1% SDS, 50 mM Tris, pH 8.0.) with Roche protease inhibitor complete cocktail and phosphatase inhibitors (10 mM sodium fluoride, 10 mM sodium pyrophosphate, 1 mM sodium orthovanadate and 20 mM β-glycerophosphate). The total protein concentrations were determined by Bradford Protein Assay and 10-20 μg of protein was loaded onto 4-15% Tris-Glycine gradient gels (Biorad). After standard gel electrophoresis, the separated proteins were transferred to PVDF membrane by wet transfer. The immunoblots were then blocked for 1 hour in 5% skim milk in TBST or 5% BSA in TBST, according to manufacturer's instructions, before an overnight incubation at 4° C. with indicated antibodies and membranes. Membranes were then incubated with the appropriate horseradish peroxidase-conjugated secondary antibodies (1:5,000 dilution) for 1 h at room temperature and the bands were visualized using the Clarity Max Western ECL Substrate (Biorad) and the ChemiDoc Imaging System (Biorad). Signal was detected with ECL Western Blotting Substrate (Pierce) and X-ray film processed with a Konica SRX-101 X-ray film processor or captured by Bio-Rad's Chemidoc Imaging system.
MCF7 cells (3×10^6) were treated for 24 h with the compounds solubilized in DMSO. Compounds were added at 100 nM-10 μM. […]

Molm-13 cells = assay: CellTiter-Glo cell viability, Molm-13 cells; settings: Molm-13, 24 and 72 h
Protocol: CellTiter-Glo® 2.0 Cell Viability Assay (Promega) was carried out following the manufacturer's recommendations. Cells were seeded at a density of 1000 cells/well in a white 96 well plates (Corning, #3917) in a total volume of 100 μl with respective monomers, combinations of BRD ligands together with E3 ligase ligands or vehicle control treatment. After a 72 h incubation, 100 ul of the CellTiter-Glo® substrate was added per well and luminescence was read on a Spectramax M5 (Molecular Devices). Dose-response curves were generated using Graphpad Prism software.
Molm-13 cells (1×10^4) were treated for 24 (FIG. 77A) or 72 (FIG. 77B) hours were treated in white 96 well plates with the compounds (10 nM-10 μM solubilized in DMSO). After indicated times cell viability was assessed using the CellTiter-Glo® Luminescent Cell Viability Assay (Promega) and the signal detected on a SpectraMax M5 (Molecular Devices).

caspase 3/7 [4] = assay: Caspase-Glo 3/7 assay, Namalwa cells
Protocol: as §2
Namalwa cells (5×104) were treated for 24 hours with the compounds solubilized in DMSO. FIG. 57 is a bar graph depiction of fold increase of apoptosis assessed via caspase 3/7 activity using the Caspase-glo assay (Promega) described above.
as §3

BRD4 [5] = molecular target: T1, BRD4; assay: Summary of BRD4 degradation by CURE-PRO pairs, estimated from Western Blot or WES (Proteinsimple); set-up: endogenous in cells; settings: Table 3; aromatic 1,2-diol-containing VHL ligand, second drawing (8305)
Text: A black check mark indicates efficacy of 30% to 70% or higher protein degradation.

## CCNC(=O)C[C@@H]1N=C(c2ccc(Cl)cc2)c2cc(B(O)O)ccc2-n2c(C)nnc21 [BRD-E50, ((4S)-6-(4-chlorophenyl)-4-(2-(ethylamino)-2-oxoethyl)-1-methyl-4H-benzo[f][1,2,4]triazolo[4,3-a][1,4]diazepin-8-yl)boronic acid]
BRD4 [1]; MCF7, 10 μM
  BRD4 degradation, monomer alone (WES): no degradation of BRD4
BRD4 [1]; MCF7, 10 μM each
  BRD4 degradation, with VHL ligand 8304 (WES): No degradation is noted
BRD4 [1]; MCF7, 10 μM each, 1:1 with 8305, 4-24 h, with washout where stated
  BRD4 degradation, with VHL ligand 8305 (WES): directs degradation of BRD4 as early as 4 h, with sustained degradation 24 h after wash out; also recorded: marked BRD4 degradation after 4h with sustained degradation for up to 8h after drugs are washed out
BRD4 [1]; MCF7, 24 h, 10 μM
  BRD4 degradation with 8305 after VHL298 preincubation: No degradation is noted
Caspase 3/7 [2]; MOLM13
  Caspase activity, co-treatment with VHL298: does not increase caspase activity
Caspase 3/7 [2]; Molm-13, 24 hours, 1:1 with 8305, 10 nM-10 μM
  Caspase 3/7 activation, co-dosed with VHL ligand 8305: marked caspase activation; also recorded: demonstrates activation of caspase 3/7
BRD4 [3]; 1:1 with 8304, 1-10 μM
  BRD4 degradation, with VHL ligand 8304 (Western blot): but not when VHL ligand 8304 is co-incubated; also recorded: no degradation is noted
BRD4 [3]; 1:1 with 8305, 100 nM-10 μM
  BRD4 degradation, with VHL ligand 8305 (Western blot): there is degradation of BRD4; also recorded: marked BRD4 degradation
Molm-13 cells
  Cell viability, co-treatment with VHL298: decreases levels of cell viability to similar levels of BRD-E50 treatment alone
Molm-13 cells; 1:1 with 8305, 10 nM-10 μM
  Loss of cell viability, co-dosed with VHL ligand 8305: greater loss of cell viability; also recorded: marked loss in cell viability
Caspase 3/7 [4]
  Caspase activity, co-treatment with VHL298: does not increase caspase activity
Caspase 3/7 [4]; 24 hours, 1:1 with 8305, 10 nM-10 μM
  Caspase 3/7 activation, co-dosed with VHL ligand 8305: marked caspase activation; also recorded: demonstrates activation of caspase 3/7
BRD4 [5]
  Degradation of BRD4 in combination with VHL ligand [drawing 397]: ✓ (A black check mark indicates efficacy of 30% to 70% or higher protein degradation)
